Values of other authors in patent US11129815B2, “Solid dispersions comprising tacrolimus” (Veloxis Pharmaceuticals A/S, priority 2003, dated 2021).

How the values were obtained:
[1] = not given; remark: listed apart in the source

solubility in chloroform (chloroform): very soluble
solubility in ethanol (ethanol): freely soluble
solubility in methanol (methanol): very soluble
solubility in water (water): practically insoluble
bioavailability ([1]; after oral administration): ≤ 20%
mean time-to-peak concentration (tmax) ([1]; oral administration, healthy subjects or kidney or liver transplanted patients): 1 to 2 h
SMILES: C=CC[C@@H]1/C=C(\C)C[C@H](C)C[C@H](OC)[C@H]2O[C@@](O)(C(=O)C(=O)N3CCCC[C@H]3C(=O)O[C@H](/C(C)=C/[C@@H]3CC[C@@H](O)[C@H](OC)C3)[C@H](C)[C@@H](O)CC1=O)[C@H](C)C[C@@H]2OC [Tacrolimus]
